Paper PMC10216581, “Homogeneous, Synthetic, Non-Saccharide Glycosaminoglycan Mimetics as Potent Inhibitors of Human Cathepsin G” (Biomolecules, 2023)

Columns and labels:
Format in all cases: biochemical
human plasma [1] = assay: Activated partial thromboplastin time (aPTT) clotting assay; details: concentration required to double the aPTT of pooled human plasma
Procedure: (§1) The impacts of NSGM 25 on activated partial thromboplastin time (aPTT) and the prothrombin time (PT) of human plasma were measured employing a standard one-stage recalcification assay at 37 °C, as previously reported. CaCl2 and thromboplastin-D were used to initiate clotting in aPTT and PT assays, respectively, in the absence and presence of NSGM 25, and the time to clot was recorded accordingly.

human plasma [2] = assay: Prothrombin time (PT) clotting assay; details: concentration required to double the PT of pooled human plasma
Procedure: as §1

Human CatG = molecular target: T1, Human CatG (Homo sapiens, UniProt P08311); assay: Direct inhibition of CatG, chromogenic substrate (S-7388) hydrolysis assay, IC50 determination; details: for IC50: pH 7.4 tris buffer, 37 °C, 60 nM CatG, 750 µM S-7388, ± 1 S.E., read-out: IC50; for IC50 / HS (Hill slope) / ΔY (efficacy): 100 mM NaCl; for HS (Hill slope): Hill slope of dose-response fit; for HS (Hill slope) / ΔY (efficacy): pH 7.4; for ΔY (efficacy): ΔY = YM − YO of dose-response fit; for fold difference (loss) in CatG inhibition potency relative to NSGM 25: ratio of IC50s versus 25
T1 construct: purchased Elastin Products Company (Owensville, MO, USA)
T1 sequence (P08311 21-255): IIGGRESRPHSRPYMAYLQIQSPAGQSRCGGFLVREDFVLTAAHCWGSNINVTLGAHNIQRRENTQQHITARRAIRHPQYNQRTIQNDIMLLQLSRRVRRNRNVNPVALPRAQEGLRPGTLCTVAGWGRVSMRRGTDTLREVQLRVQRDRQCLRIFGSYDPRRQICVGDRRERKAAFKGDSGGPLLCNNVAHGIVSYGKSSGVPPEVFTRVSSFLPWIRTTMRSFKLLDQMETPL
Procedure: A chromogenic substrate hydrolysis assay was used to determine the direct inhibition of CatG by the NSGMs, as previously reported. To each well of a 96-well microplate containing 88 µL of 20 mM tris buffer, containing 100 mM NaCl, 2.5 mM CaCl2, 0.1% PEG 8000, and 0.05% Tween 80, 4 µL of CatG (final concentration of 60 nM) and 5 µL of H2O or NSGM (final concentration of 0–100 µM) were added. After incubating for a period of 5 min, 3 µL of CatG substrate (S-7388, final concentration of 750 µM) was added, and the residual CatG activity was obtained from the initial rate of increase of absorbance at 405 nm. The relative residual activity of CatG for each of the NSGMs, at the various concentrations, was calculated from the ratio of CatG activity in the presence and absence of NSGMs. The dose dependence curve was plotted using a logistic equation (see below) in Sigmaplot version 12 to obtain the IC50 (potency), Hill slope (HS), and efficacy (ΔY). Here, Y is the ratio of residual CatG activity in the presence of NSGMs to that in their absence, YO and YM are the minimum and maximum values of fractional residual CatG activity, respectively, IC50 is the concentration of the NSGM that inhibits CatG activity by 50%, and HS is the Hill slope. ΔY = YM − YO. Y=YO+YM−YO/1+10^logI0−logIC50HS
Figure 4 Representative IC50 profiles for CatG inhibition by NSGMs. Direct inhibition of human CatG was measured using the chromogenic substrate hydrolysis assay at pH 7.4 and 37 °C. Solid lines represent analysis using the logistic dose–response relationship (Equation (1)) to obtain the IC50, ΔY%, and HS. Errors represent ± 1 S.E.

## CC1CNc2c(cccc2S(=O)(=O)N[C@@H](CCCNC(=N)N)C(=O)N2CC[C@@H](C)C[C@@H]2C(=O)O)C1 (some centres unmarked) [Argatroban, argatroban, reference compound]
Human plasma [1]
  aPTT (EC2X): 0.34 µM
Human plasma [2]
  PT (EC2X): 0.36 µM

## CCOC(=O)c1c(C)oc2cc(OCc3cccc(OS(=O)(=O)O)c3)c(OS(=O)(=O)O)cc12 [NSGM 2]
Human CatG
  IC50: > 50 µM

## COc1cc2oc(C)c(C(=O)OCCOS(=O)(=O)O)c2cc1OS(=O)(=O)O [NSGM 3]
Human CatG
  IC50: > 50 µM

## Cc1ccc(OCCOc2cc(OS(=O)(=O)O)cc3oc(-c4ccc(OS(=O)(=O)O)cc4)cc(=O)c23)cc1 [NSGM 16]
Human CatG
  HS (Hill slope): 1.9 ± 0.3
  IC50: > 100 µM
  ΔY (efficacy): 115 ± 4%

## O=S(=O)(O)Oc1cc2c(c(OS(=O)(=O)O)c1)CC(OS(=O)(=O)O)C(c1ccc(OS(=O)(=O)O)c(OS(=O)(=O)O)c1)O2 (centres unmarked) [NSGM 17]
Human CatG
  HS (Hill slope): 3.1 ± 1.3
  IC50: 65 ± 13 µM
  ΔY (efficacy): 76 ± 7%

## O=c1cc(-c2ccc(OS(=O)(=O)O)cc2)oc2cc(OS(=O)(=O)O)cc(OCC=CCOc3cc(OS(=O)(=O)O)cc4oc(-c5ccc(OS(=O)(=O)O)cc5)cc(=O)c34)c12 [NSGM 18]
Human CatG
  HS (Hill slope): 1.5 ± 0.3
  IC50: 4.7 ± 0.7 µM
  ΔY (efficacy): 81 ± 7%

## O=c1cc(-c2ccc(OS(=O)(=O)O)cc2)oc2cc(OS(=O)(=O)O)cc(OCc3ccc(COc4cc(OS(=O)(=O)O)cc5oc(-c6ccc(OS(=O)(=O)O)cc6)cc(=O)c45)cc3)c12 [NSGM 19]
Human CatG
  HS (Hill slope): 3.1 ± 1.0
  IC50: 3.3 ± 0.3 µM
  fold difference (loss) in CatG inhibition potency relative to NSGM 25: 66 fold
  ΔY (efficacy): 82 ± 4%

## O=c1cc(-c2ccc(OS(=O)(=O)O)cc2)oc2cc(OS(=O)(=O)O)cc(OCc3cccc(COc4cc(OS(=O)(=O)O)cc5oc(-c6ccc(OS(=O)(=O)O)cc6)cc(=O)c45)c3)c12 [NSGM 21]
Human CatG
  HS (Hill slope): 1.3 ± 0.8
  IC50: 10.3 ± 4.8 µM
  ΔY (efficacy): 81 ± 7%

## O=c1cc(-c2ccc(OS(=O)(=O)O)cc2)oc2cc(OS(=O)(=O)O)cc(OCc3ccc(COc4cc(OS(=O)(=O)O)cc5oc(-c6ccc(OS(=O)(=O)O)cc6)cc(=O)c45)nc3)c12 [NSGM 22]
Human CatG
  HS (Hill slope): 1.2 ± 0.2
  IC50: 1.3 ± 0.2 µM
  ΔY (efficacy): 105 ± 7%

## O=c1cc(-c2ccc(OS(=O)(=O)O)cc2)oc2cc(OS(=O)(=O)O)cc(OCc3ccc(-c4ccc(COc5cc(OS(=O)(=O)O)cc6oc(-c7ccc(OS(=O)(=O)O)cc7)cc(=O)c56)cc4)cc3)c12 [NSGM 23]
Human CatG
  HS (Hill slope): 4.1 ± 1.0
  IC50: 3.4 ± 0.2 µM
  ΔY (efficacy): 103 ± 4%

## O=c1c(OS(=O)(=O)O)c(-c2ccc(OS(=O)(=O)O)c(OS(=O)(=O)O)c2)oc2cc(OS(=O)(=O)O)cc(OCCCOc3cc(OS(=O)(=O)O)cc4oc(-c5ccc(OS(=O)(=O)O)c(OS(=O)(=O)O)c5)c(OS(=O)(=O)O)c(=O)c34)c12 [NSGM 24]
Human CatG
  HS (Hill slope): 1.5 ± 0.5
  IC50: 0.21 ± 0.04 µM
  fold difference (loss) in CatG inhibition potency relative to NSGM 25: 4 fold
  ΔY (efficacy): 94 ± 9%

## O=c1c(OS(=O)(=O)O)c(-c2ccc(OS(=O)(=O)O)c(OS(=O)(=O)O)c2)oc2cc(OS(=O)(=O)O)cc(OCc3cccc(COc4cc(OS(=O)(=O)O)cc5oc(-c6ccc(OS(=O)(=O)O)c(OS(=O)(=O)O)c6)c(OS(=O)(=O)O)c(=O)c45)c3)c12 [NSGM 27]
Human CatG
  HS (Hill slope): 0.9 ± 0.4
  IC50: 0.15 ± 0.06 µM
  ΔY (efficacy): 77 ± 10%

## O=c1c(OS(=O)(=O)O)c(-c2ccc(OS(=O)(=O)O)c(OS(=O)(=O)O)c2)oc2cc(OS(=O)(=O)O)cc(OCc3ccc(COc4cc(OS(=O)(=O)O)cc5oc(-c6ccc(OS(=O)(=O)O)c(OS(=O)(=O)O)c6)c(OS(=O)(=O)O)c(=O)c45)nc3)c12 [NSGM 28]
Human CatG
  HS (Hill slope): 0.9 ± 0.2
  IC50: 0.18 ± 0.04 µM
  ΔY (efficacy): 77 ± 5%

## CCOC(=O)c1c(C)oc2cc(OCc3ccccc3)c(OCCCOc3cc(OS(=O)(=O)O)cc4oc(-c5ccc(OS(=O)(=O)O)cc5)cc(=O)c34)cc12 [NSGM 30]
Human CatG
  HS (Hill slope): 2.1 ± 0.5
  IC50: 18.9 ± 2.2 µM
  ΔY (efficacy): 87 ± 5%

## O=C(NC[C@H]1CN(c2ccc(N3CCOCC3=O)cc2)C(=O)O1)c1ccc(Cl)s1 [Rivaroxaban, rivaroxaban, reference compound]
Human plasma [1]
  aPTT (EC2X): 0.12 µM
Human plasma [2]
  PT (EC2X): 0.15 µM
